In the assay the target is P70S6K (T412E mutant) (Homo sapiens (Human), UniProt P23443, T412E). As to the kind of experiment: P70S6K enzyme assay. The format is biochemical. As to conditions: 3 nM P70S6K T412E mutant, 24 μM ATP, 1 μM FITC-AHA-AKRRRLSSLRA-OH substrate peptide, 90 min at 25° C. In a few lines:
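P70S6K T412E mutant (3 nM) with 24 μM ATP and 1 μM FITC-labelled S6-derived peptide in Hepes pH 7.5, MgCl2, DTT, Brij buffer; 90 min at 25° C, stopped with EDTA. Phosphorylated product and substrate peptides separated by microfluidic mobility shift; IC50 values derived.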

P70S6K (T412E mutant), sequence (P23443 whole entry T412E): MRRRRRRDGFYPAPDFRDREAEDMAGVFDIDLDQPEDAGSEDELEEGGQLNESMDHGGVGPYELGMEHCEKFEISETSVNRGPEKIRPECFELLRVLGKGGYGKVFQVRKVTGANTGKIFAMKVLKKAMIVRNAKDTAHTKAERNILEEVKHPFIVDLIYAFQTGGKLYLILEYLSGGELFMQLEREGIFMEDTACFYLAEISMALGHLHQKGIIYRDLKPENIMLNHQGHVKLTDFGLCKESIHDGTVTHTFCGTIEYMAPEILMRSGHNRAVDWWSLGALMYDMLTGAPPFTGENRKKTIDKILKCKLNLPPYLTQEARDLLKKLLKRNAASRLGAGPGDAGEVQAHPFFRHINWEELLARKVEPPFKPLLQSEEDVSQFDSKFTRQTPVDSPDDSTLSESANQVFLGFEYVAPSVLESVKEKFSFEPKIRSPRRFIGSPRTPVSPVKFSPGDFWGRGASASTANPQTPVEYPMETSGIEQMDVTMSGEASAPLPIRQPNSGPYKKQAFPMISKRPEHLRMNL

Turning to `NCC(c1ccc(Cl)cc1)N1CCN(c2ncnc(N)c2-c2ccc(F)cc2)CC1` (centres unmarked) [Example 163, 6-{4-[2-Amino-1-(4-chloro-phenyl)-ethyl]-piperazin-1-yl}-5-(4-fluoro-phenyl)-pyrimidin-4-ylamine], the half-maximal inhibitory concentration (IC50) is 1.3 nM.
Under `N#CC(c1ccc(Cl)c(F)c1)N1CCN(c2ncnc(N)c2-c2ccc(F)cc2)CC1` (centres unmarked) [Example 164, {4-[6-Amino-5-(4-fluoro-phenyl)-pyrimidin-4-yl]-piperazin-1-yl}-(4-chloro-3-fluoro-phenyl)-acetonitrile] stands 44 nM; under `NCC(c1ccc(Cl)c(F)c1)N1CCN(c2ncnc(N)c2-c2ccc(F)cc2)CC1` (centres unmarked) [Example 165, 6-{4-[2-Amino-1-(4-chloro-3-fluoro-phenyl)-ethyl]-piperazin-1-yl}-5-(4-fluoro-phenyl)-pyrimidin-4-ylamine], 0.9 nM.
Compound `N#CC(c1cccc(C(F)(F)F)c1)N1CCN(c2ncnc(N)c2Br)CC1` (centres unmarked) [Example 166, [4-(6-Amino-5-bromo-pyrimidin-4-yl)-piperazin-1-yl]-(3-trifluoromethyl-phenyl)-acetonitrile] showed an IC50 of 6100 nM.
`N#CC(c1ccc(C(F)(F)F)cc1)N1CCN(c2ncnc(N)c2Br)CC1` (centres unmarked) [Example 167, [4-(6-Amino-5-bromo-pyrimidin-4-yl)-piperazin-1-yl]-(4-trifluoromethyl-phenyl)-acetonitrile] registered a half-inhibitory concentration (IC50) greater than 1000 nM.
Turning to `N#CC(c1ccc(C(F)(F)F)cc1)N1CCN(c2ncnc(N)c2-c2ccc(F)cc2)CC1` (centres unmarked) [Example 168, {4-[6-Amino-5-(4-fluoro-phenyl)-pyrimidin-4-yl]-piperazin-1-yl}-(4-trifluoromethyl-phenyl)-acetonitrile], the 50% inhibitory concentration (IC50) came out at 240 nM. That is a sub-micromolar value.
The same measure for `NCC(c1cccc(F)c1)N1CCN(c2ncnc(N)c2-c2ccc(F)cc2)CC1` (centres unmarked) [Example 169, 6-{4-[2-Amino-1-(3-fluoro-phenyl)-ethyl]-piperazin-1-yl}-5-(4-fluoro-phenyl)-pyrimidin-4-ylamine]: 4.1 nM; for `NCC(c1ccc(C(F)(F)F)cc1F)N1CCN(c2ncnc(N)c2-c2ccc(F)cc2)CC1` (centres unmarked) [Example 170, 6-{4-[2-Amino-1-(2-fluoro-4-trifluoromethyl-phenyl)-ethyl]-piperazin-1-yl}-5-(4-fluoro-phenyl)-pyrimidin-4-ylamine]: 12 nM.
The same measure for `C[C@H](c1ccccc1)[C@H](CN)N1CCN(c2ncnc(N)c2-c2ccc(F)cc2)CC1` [Example 171, 6-[4-((1R,2R)-1-Aminomethyl-2-phenyl-propyl)-piperazin-1-yl]-5-(4-fluoro-phenyl)-pyrimidin-4-ylamine]: 73 nM; for `C[C@@H](c1ccccc1)[C@H](CN)N1CCN(c2ncnc(N)c2-c2ccc(F)cc2)CC1` [Example 172, 6-[4-((1R,2S)-1-Aminomethyl-2-phenyl-propyl)-piperazin-1-yl]-5-(4-fluoro-phenyl)-pyrimidin-4-ylamine]: 280 nM.
The same measure for `N#CC(c1ccc(Cl)nc1)N1CCN(c2ncnc(N)c2-c2ccc(F)cc2)CC1` (centres unmarked) [Example 173, {4-[6-Amino-5-(4-fluoro-phenyl)-pyrimidin-4-yl]-piperazin-1-yl}-(6-chloro-pyridin-3-yl)-acetonitrile]: 110 nM; for `NCC(c1ccc(Cl)nc1)N1CCN(c2ncnc(N)c2-c2ccc(F)cc2)CC1` (centres unmarked) [Example 174, 6-{4-[2-Amino-1-(6-chloro-pyridin-3-yl)-ethyl]-piperazin-1-yl}-5-(4-fluoro-phenyl)-pyrimidin-4-ylamine]: 8.5 nM.
With `NC[C@@H](c1ccc(Cl)nc1)N1CCN(c2ncnc(N)c2-c2ccc(F)cc2)CC1` [Example 175, 6-{4-[(R)-2-Amino-1-(6-chloro-pyridin-3-yl)-ethyl]-piperazin-1-yl}-5-(4-fluoro-phenyl)-pyrimidin-4-ylamine], 2.6 nM corresponded to half-maximal inhibition (IC50). Compared with the last compound, the IC50 is about 3.3-fold lower.
On to `NC[C@H](c1ccc(Cl)nc1)N1CCN(c2ncnc(N)c2-c2ccc(F)cc2)CC1` [Example 176, 6-{4-[(S)-2-Amino-1-(6-chloro-pyridin-3-yl)-ethyl]-piperazin-1-yl}-5-(4-fluoro-phenyl)-pyrimidin-4-ylamine], for which 0.8 nM corresponded to half-maximal inhibition (IC50). This IC50 lies about 3.2-fold lower than the previous one.
Under `CCc1c(N)ncnc1N1CCN(C(CN)c2ccc(Cl)nc2)CC1` (centres unmarked) [Example 177, 6-{4-[2-Amino-1-(6-chloro-pyridin-3-yl)-ethyl]-piperazin-1-yl}-5-ethyl-pyrimidin-4-ylamine] stands 200 nM; under `CCc1c(N)ncnc1N1CCN(C(CN)c2ccc(Cl)cc2)CC1` (centres unmarked) [Example 178, 6-{4-[2-Amino-1-(4-chloro-phenyl)-ethyl]-piperazin-1-yl}-5-ethyl-pyrimidin-4-ylamine], 69 nM; under `CCc1c(N)ncnc1N1CCN([C@H](CN)c2ccc(Cl)cc2)CC1` [Example 179, 6-{4-[(S)-2-Amino-1-(4-chloro-phenyl)-ethyl]-piperazin-1-yl}-5-ethyl-pyrimidin-4-ylamine], 13 nM.
As to `CCc1c(N)ncnc1N1CCN([C@@H](CN)c2ccc(Cl)cc2)CC1` [Example 180, 6-{4-[(R)-2-Amino-1-(4-chloro-phenyl)-ethyl]-piperazin-1-yl}-5-ethyl-pyrimidin-4-ylamine], the IC50 amounted to 190 nM.
In turn, `CCc1c(N)ncnc1N1CCN(C(CN)c2ccc3c(c2)OCCO3)CC1` (centres unmarked) [Example 181, 6-{4-[2-Amino-1-(2,3-dihydro-benzo[1,4]dioxin-6-yl)-ethyl]-piperazin-1-yl}-5-ethyl-pyrimidin-4-ylamine] came in with a half-maximal inhibitory concentration (IC50) of 180 nM.
Regarding `COc1ccc(C(C#N)N2CCN(c3ncnc(N)c3-c3ccc(F)cc3)CC2)cn1` (centres unmarked) [Example 182, 2-(4-(6-amino-5-(4-fluorophenyl)pyrimidin-4-yl)piperazin-1-yl)-2-(6-methoxypyridin-3-yl)acetonitrile], the midpoint of inhibition, the IC50, lay at 220 nM.
`COc1ccc(C(CN)N2CCN(c3ncnc(N)c3-c3ccc(F)cc3)CC2)cn1` (centres unmarked) [Example 183, 6-(4-(2-amino-1-(6-methoxypyridin-3-yl)ethyl)piperazin-1-yl)-5-(4-fluorophenyl)pyrimidin-4-amine]: the IC50 came to 3.4 nM.
The same measure for `CS(=O)(=O)c1ccc(C(C#N)N2CCN(c3ncnc(N)c3-c3cn[nH]c3)CC2)cc1` (centres unmarked) [Example 184, 2-(4-(6-amino-5-(1H-pyrazol-4-yl)pyrimidin-4-yl)piperazin-1-yl)-2-(4-(methylsulfonyl)phenyl)acetonitrile]: greater than 1000 nM; for `CS(=O)(=O)c1ccc(C(CN)N2CCN(c3ncnc(N)c3-c3cn[nH]c3)CC2)cc1` (centres unmarked) [Example 185, 6-(4-(2-amino-1-(4-(methylsulfonyl)phenyl)ethyl)piperazin-1-yl)-5-(1H-pyrazol-4-yl)pyrimidin-4-amine]: 60 nM.
Take `NCC(c1ccc(OC(F)(F)F)cc1)N1CCN(c2ncnc(N)c2-c2cn[nH]c2)CC1` (centres unmarked) [Example 186, 6-(4-(2-amino-1-(4-(trifluoromethoxy)phenyl)ethyl)piperazin-1-yl)-5-(1H-pyrazol-4-yl)pyrimidin-4-amine]: the concentration for half-maximal inhibition (IC50) turned out to be 1.4 nM.
The same measure for `NCC(c1ccc(Cl)c(F)c1)N1CCN(c2ncnc(N)c2-c2cn[nH]c2)CC1` (centres unmarked) [Example 187, 6-(4-(2-amino-1-(4-chloro-3-fluorophenyl)ethyl)piperazin-1-yl)-5-(1H-pyrazol-4-yl)pyrimidin-4-amine]: 6.1 nM; for `CCc1c(N)ncnc1N1CCN(C(CN)C2CCCCC2)CC1` (centres unmarked) [Example 188, 6-[4-(2-Amino-1-cyclohexyl-ethyl)-piperazin-1-yl]-5-ethyl-pyrimidin-4-ylamine]: greater than 1000 nM.

What is called IC50 is the concentration at which inhibition is half-maximal.

(Values after patent US9321760B2 (Merck Patent GmbH, priority 2011, dated 2016).)
